According to PubChem BioAssay (NCI):
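48-hour exposure; five concentrations; linearly interpolated endpoints. Definition used: TGI = concentration required for complete inhibition of growth.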

Key:
Assay in all cases: NCI-60 cell line screen, 48 h
[1] = system: SW-620 colon
[2] = system: DU-145 prostate
[3] = system: K-562 leukemia
[4] = system: LOX IMVI melanoma
[5] = system: OVCAR-8 ovarian
[6] = system: TK-10 renal
[7] = system: SK-OV-3 ovarian
[8] = system: T-47D breast
[9] = system: U251 CNS
[10] = system: 786-0 renal
[11] = system: MDA-MB-231 breast
[12] = system: UO-31 renal
[13] = system: HCT-116 colon
[14] = system: KM12 colon
[15] = system: EKVX NSCLC
[16] = system: PC-3 prostate
[17] = system: RPMI-8226 leukemia
[18] = system: NCI-H23 lung
[19] = system: SNB-75 CNS
[20] = system: UACC-257 melanoma
[21] = system: ACHN renal
[22] = system: MDA-N
[23] = system: SNB-19 CNS
[24] = system: OVCAR-4 ovarian
[25] = system: SF-539 CNS
[26] = system: NCI-H226 lung
[27] = system: HOP-92 NSCLC
[28] = system: NCI-H460 lung
[29] = system: UACC-62 melanoma
[30] = system: A498 renal
[31] = system: MCF7 breast
[32] = system: NCI/ADR-RES ovarian
[33] = system: OVCAR-3 ovarian
[34] = system: SF-295 CNS
[35] = system: MALME-3M melanoma
[36] = system: A549 NSCLC
[37] = system: MDA-MB-435
[38] = system: SK-MEL-2 melanoma
[39] = system: BT-549 breast
[40] = system: SR leukemia
[41] = system: HL-60(TB) leukemia
[42] = system: HCT-15 colon
[43] = system: OVCAR-5 ovarian
[44] = system: MOLT-4 leukemia
[45] = system: HOP-62 NSCLC
[46] = system: CAKI-1 renal
[47] = system: HS 578T breast
[48] = system: COLO 205 colon
[49] = system: RXF 393 renal
[50] = system: NCI-H522 lung
[51] = system: SK-MEL-28 melanoma
[52] = system: HT29 colon
[53] = system: SK-MEL-5 melanoma
[54] = system: SF-268 CNS
[55] = system: IGROV1 ovarian
[56] = system: M14 melanoma
[57] = system: CCRF-CEM leukemia
[58] = system: SN12C renal
[59] = system: HCC-2998 colon

In the case of `N#CC(C#N)=Cc1c[nH]c(=O)[nH]c1=O`, the TGI [1] is reported as > 100 µM, the TGI [2] is reported as > 100 µM and the TGI [3] is reported as > 100 µM. The TGI [4] was > 100 µM, the TGI [5] was > 100 µM and the TGI [6] was > 100 µM. The TGI [7] was > 100 µM, the TGI [8] was > 100 µM and the TGI [9] was > 100 µM. The TGI [10] was > 100 µM, the TGI [11] was > 100 µM and the TGI [12] was > 100 µM. For the same molecule, the TGI [13] was > 100 µM, the TGI [14] was > 100 µM and the TGI [15] was > 100 µM. For the same molecule, the TGI [16] was > 100 µM, the TGI [17] was > 100 µM and the TGI [18] was > 100 µM. The TGI [19] was > 100 µM, the TGI [20] was > 100 µM and the TGI [21] was > 100 µM. The TGI [22] was > 100 µM, the TGI [23] was > 100 µM and the TGI [24] was > 100 µM. The TGI [25] was > 100 µM, the TGI [26] was > 100 µM and the TGI [27] was > 100 µM. The TGI [28] was > 100 µM, the TGI [29] was > 100 µM and the TGI [30] was > 100 µM. The TGI [31] was > 100 µM, the TGI [32] was > 100 µM and the TGI [33] was > 100 µM. The TGI [34] was > 100 µM, the TGI [35] was > 100 µM and the TGI [36] was > 100 µM. For the same molecule, the TGI [37] was > 100 µM, the TGI [38] was > 100 µM and the TGI [39] was > 100 µM. The TGI [40] was > 100 µM, the TGI [41] was > 100 µM and the TGI [42] was > 100 µM. For the same molecule, the TGI [43] was > 100 µM, the TGI [44] was > 100 µM and the TGI [45] was > 100 µM. The TGI [46] was > 100 µM, the TGI [47] was > 100 µM and the TGI [48] was > 100 µM. For the same molecule, the TGI [49] was > 100 µM, the TGI [50] was > 100 µM and the TGI [51] was > 100 µM. For the same molecule, the TGI [52] was > 100 µM, the TGI [53] was > 100 µM and the TGI [54] was > 100 µM. For the same molecule, the TGI [55] was > 100 µM, the TGI [56] was > 100 µM and the TGI [57] was 63.9 µM. The TGI [58] was > 100 µM.
`O=S1OC[C@H](CCCl)O1` (stereo not given in full) was tested, and the TGI [1] was > 100 µM, the TGI [2] was > 100 µM and the TGI [3] was > 100 µM. The TGI [4] was > 100 µM, the TGI [5] was > 100 µM and the TGI [6] was > 100 µM. The TGI [7] was > 100 µM, the TGI [8] was > 100 µM and the TGI [9] was > 100 µM. The TGI [10] was > 100 µM, the TGI [11] was > 100 µM and the TGI [12] was > 100 µM. The TGI [13] was > 100 µM, the TGI [14] was > 100 µM and the TGI [15] was > 100 µM. For the same molecule, the TGI [16] was > 100 µM, the TGI [17] was > 100 µM and the TGI [18] was > 100 µM. For the same molecule, the TGI [19] was > 100 µM, the TGI [20] was > 100 µM and the TGI [21] was > 100 µM. The TGI [22] was > 100 µM, the TGI [23] was > 100 µM and the TGI [24] was > 100 µM. For the same molecule, the TGI [25] was > 100 µM, the TGI [26] was > 100 µM and the TGI [27] was > 100 µM. The TGI [28] was > 100 µM, the TGI [29] was > 100 µM and the TGI [30] was > 100 µM. For the same molecule, the TGI [31] was > 100 µM, the TGI [32] was > 100 µM and the TGI [33] was > 100 µM. For the same molecule, the TGI [34] was > 100 µM, the TGI [35] was > 100 µM and the TGI [36] was > 100 µM. For the same molecule, the TGI [37] was > 100 µM, the TGI [38] was > 100 µM and the TGI [39] was > 100 µM. For the same molecule, the TGI [40] was > 100 µM, the TGI [41] was > 100 µM and the TGI [42] was > 100 µM. For the same molecule, the TGI [43] was > 100 µM, the TGI [44] was > 100 µM and the TGI [45] was > 100 µM. The TGI [46] was > 100 µM, the TGI [47] was > 100 µM and the TGI [48] was > 100 µM. For the same molecule, the TGI [50] was > 100 µM, the TGI [51] was > 100 µM and the TGI [52] was > 100 µM. The TGI [53] was > 100 µM, the TGI [55] was > 100 µM and the TGI [59] was > 100 µM. For the same molecule, the TGI [56] was > 100 µM, the TGI [57] was > 100 µM and the TGI [58] was > 100 µM.
